Measured values: PubChem BioAssay (NCI)
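In this assay, cells in 96-well plates receive the compound at five concentrations for 48 hours. Endpoints are linearly interpolated between the surrounding concentrations. GI50 = concentration required for 50% inhibition of growth. TGI denotes the concentration required for complete inhibition of growth.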

Legend:
Assay in all cases: inhibition of tumour cell growth, NCI panel, 48 h
CAKI-1 renal = system: CAKI-1 renal
HS 578T breast = system: HS 578T breast
K-562 leukemia = system: K-562 leukemia
M14 melanoma = system: M14 melanoma
NCI-H460 lung = system: NCI-H460 lung
SF-539 CNS = system: SF-539 CNS
SK-MEL-5 melanoma = system: SK-MEL-5 melanoma
SNB-75 CNS = system: SNB-75 CNS
BT-549 breast = system: BT-549 breast
NCI-H226 lung = system: NCI-H226 lung

| Structure (SMILES) | TGI (CAKI-1 renal) [µM] | TGI (HS 578T breast) [µM] | TGI (K-562 leukemia) [µM] | TGI (M14 melanoma) [µM] | TGI (NCI-H460 lung) [µM] | TGI (SF-539 CNS) [µM] | TGI (SK-MEL-5 melanoma) [µM] | TGI (SNB-75 CNS) [µM] | TGI (BT-549 breast) [µM] | TGI (NCI-H226 lung) [µM] | GI50 (BT-549 breast) [µM] | GI50 (CAKI-1 renal) [µM] | GI50 (HS 578T breast) [µM] | GI50 (M14 melanoma) [µM] | GI50 (NCI-H226 lung) [µM] | GI50 (NCI-H460 lung) [µM] | GI50 (SF-539 CNS) [µM] | GI50 (SNB-75 CNS) [µM] |
| --- | --- | --- | --- | --- | --- | --- | --- | --- | --- | --- | --- | --- | --- | --- | --- | --- | --- | --- |
| Cc1cccc2c1CC1(Cc3c(C)cccc3C1=O)C2=O | > 100 | > 100 | > 100 | > 100 | > 100 | > 100 | > 100 | > 100 | – | – | – | – | – | – | – | – | – | – |
| O=C(Nc1ccccn1)c1cc2c(cc1Cl)Sc1nccn1S2(=O)=O | > 100 | > 100 | > 100 | > 100 | > 100 | – | 67.6 | > 100 | > 100 | 57.3 | – | – | – | – | – | – | – | – |
| COC(=O)C1=C(C(=O)OC)C2CCC1CC2=O (configuration not stated) | > 100 | – | > 100 | > 100 | > 100 | > 100 | > 100 | > 100 | > 100 | > 100 | – | – | – | – | – | – | – | – |
| Cc1cn(C2CC(/[N+]([O-])=N\Nc3ccc([N+](=O)[O-])cc3)C(CO)O2)c(=O)[nH]c1=O (configuration not stated) | > 100 | > 100 | > 100 | > 100 | > 100 | > 100 | – | – | > 100 | > 100 | – | – | – | – | – | – | – | – |
| CCOC(=O)C(C(=O)OCC)C(=S)NC1OC(COC(C)=O)C(OC(C)=O)C(OC(C)=O)C1OC(C)=O (configuration not stated) | > 100 | > 100 | – | > 100 | > 100 | > 100 | > 100 | – | > 100 | > 100 | – | – | – | – | – | – | – | – |
| COc1ccc(-c2c3c(n(C4OC(COC(C)=O)C(OC(C)=O)C(OC(C)=O)C4OC(C)=O)c(=S)c2C#N)CCCC3)cc1 (configuration not stated) | 79.9 | – | > 100 | > 100 | > 100 | > 100 | > 100 | 94 | – | > 100 | – | – | – | – | – | – | – | – |
| CCCCCCCCC[C@@H]1C[C@H](O)[C@H](Cc2ccccc2)N1C(=O)OC(C)(C)C | 38.2 | – | > 100 | 38.4 | – | 37.2 | 33.1 | 38.1 | – | – | – | – | – | – | – | – | – | – |
| O=C1C=C(NCCc2ccc(O)cc2)C(=O)C=C1NCCc1ccc(O)cc1 | > 100 | > 100 | > 100 | – | > 100 | – | > 100 | 47.5 | > 100 | > 100 | – | – | – | – | – | – | – | – |
| NCCCCNCCCNC(=O)c1csc(-c2nc(CCN)sc2Cl)n1 | – | > 100 | > 100 | > 100 | > 100 | > 100 | > 100 | > 100 | > 100 | > 100 | – | – | – | – | – | – | – | – |
| O=[N+]([O-])c1ccc(N/N=C\c2ccc(O)cc2O)nc1 | 9.8 | > 100 | – | 4.85 | > 100 | > 100 | – | > 100 | > 100 | > 100 | 6.06 | 1.68 | 38.3 | 1.44 | 3.39 | 0.797 | 3.07 | 9.77 |
| COc1ccc(/C=C2\NC(=S)N(CN3CCOCC3)C2=O)cc1 | – | > 100 | > 100 | > 100 | – | – | > 100 | > 100 | – | > 100 | – | – | – | – | – | – | – | – |
| COc1ccc(C(CC(=O)c2ccc(O)cc2)C(C(=O)c2ccc(O)cc2)C(c2ccc(OC)cc2)C2C(=O)NC(=S)NC2=O)cc1 (configuration not stated) | – | 67.8 | > 100 | 39.3 | 39.5 | – | 42.5 | 87.5 | 47.9 | 40 | – | – | – | – | – | – | – | – |
| c1ccc2c(CCNC3=NCCO3)cccc2c1 | > 10 | > 10 | > 10 | > 10 | > 10 | > 10 | > 10 | > 10 | – | > 10 | – | – | – | – | – | – | – | – |
| O=C1OCC(CN2CCC(n3c(=O)[nH]c4ccccc43)CC2)=C1c1ccccc1 | 51.4 | 60.4 | > 100 | 33.4 | 21.2 | 35.6 | 28.9 | 72.4 | – | 76.7 | – | – | – | – | – | – | – | – |
| COc1ccccc1N1C(=O)/C(=C\c2ccccc2)SC1c1cc(OC)c(OC)c(OC)c1 (configuration not stated) | > 100 | > 100 | > 100 | > 100 | – | – | > 100 | – | > 100 | > 100 | – | – | – | – | – | – | – | – |
| COC(=O)CCC(=O)c1ccc2c(c1)CC1(Cc3ccccc3C1)C2 | – | > 100 | – | > 100 | – | > 100 | 33.1 | – | – | 94.9 | – | – | – | – | – | – | – | – |
| c1ccc2c[n+](Cc3ccnc4ccccc34)ccc2c1 | > 100 | > 100 | > 100 | > 100 | > 100 | > 100 | > 100 | – | > 100 | > 100 | – | – | – | – | – | – | – | – |
| Cc1cc(NS(=O)(=O)c2ccc(N=Nc3c(Nc4ccccc4)nn(-c4ccc(S(=O)(=O)Nc5ccncn5)cc4)c3C)cc2)no1 | > 100 | – | > 100 | > 100 | – | > 100 | > 100 | > 100 | – | > 100 | – | – | – | – | – | – | – | – |
| CN(C)CCNc1nc2c(c(=O)n(C)c(=O)n2C)n1C | > 100 | > 100 | > 100 | > 100 | > 100 | > 100 | > 100 | – | > 100 | > 100 | – | – | – | – | – | – | – | – |
| CCOc1ccnc2c(OC)c(C)c3nc4ccccc4nc3c12 | > 100 | > 100 | > 100 | > 100 | > 100 | > 100 | > 100 | > 100 | – | > 100 | – | – | – | – | – | – | – | – |
| O=[N+]([O-])c1cnccc1-n1nnc2ccccc21 | – | – | > 100 | – | > 87 | 45.8 | 33.3 | 54.1 | – | 49.8 | – | – | – | – | – | – | – | – |
| COc1cc2oc(=O)cc(C)c2c(OC)c1OC | – | > 100 | > 100 | > 100 | – | – | > 100 | > 100 | – | > 100 | – | – | – | – | – | – | – | – |
| CN(C)C=Nc1cccc2c1NSN2 | > 100 | > 100 | > 100 | > 100 | > 100 | > 100 | > 100 | > 100 | – | > 100 | – | – | – | – | – | – | – | – |
| COc1ccc(OC/C(N=Cc2cccnc2)=N/NC(=O)c2ccncc2)cc1 | > 100 | > 100 | > 100 | > 100 | > 100 | > 100 | – | 85.2 | > 100 | > 100 | – | – | – | – | – | – | – | – |
